ChEMBL document CHEMBL1151123, “Isolation of a New Indole Alkaloid, Pendolmycin, from Nocardiopsis” (J Nat Prod, 1988)
Converted amounts (≈) assume the structure as drawn. The source made the active and inactive calls. The rule behind the calls is not given here.

What was measured:
[1] = molecular target: Epidermal growth factor receptor (Homo sapiens) (UniProt P00533); test: Inhibition of EGF binding to EGFR in human A431 cells; format: cell-based; conditions: A-431
Micrococcus luteus = test: Antibacterial activity against Micrococcus luteus; format: functional
Bacillus cereus = test: Antibacterial activity against Bacillus cereus; format: functional
Corynebacterium bovis = test: Antibacterial activity against Corynebacterium bovis; format: functional
A-431 = test: Inhibition of phosphatidylinositol turnover in EGF-stimulated human A431 cells by liquid scintillation counting; format: functional, cell-based
Bacillus anthracis = test: Antibacterial activity against Bacillus anthracis; format: functional
Bacillus subtilis = test: Antibacterial activity against Bacillus subtilis; format: functional
Staphylococcus aureus = test: Antibacterial activity against Staphylococcus aureus; format: functional
Zone of skin = test: Toxicity in human skin assessed as erythema; format: tissue-based
[2] = system: Mycolicibacterium smegmatis; test: Antibacterial activity against Mycobacterium smegmatis; format: functional
Klebsiella pneumoniae = test: Antibacterial activity against Klebsiella pneumoniae; format: functional

Epidermal growth factor receptor (Homo sapiens), sequence (P00533 whole entry): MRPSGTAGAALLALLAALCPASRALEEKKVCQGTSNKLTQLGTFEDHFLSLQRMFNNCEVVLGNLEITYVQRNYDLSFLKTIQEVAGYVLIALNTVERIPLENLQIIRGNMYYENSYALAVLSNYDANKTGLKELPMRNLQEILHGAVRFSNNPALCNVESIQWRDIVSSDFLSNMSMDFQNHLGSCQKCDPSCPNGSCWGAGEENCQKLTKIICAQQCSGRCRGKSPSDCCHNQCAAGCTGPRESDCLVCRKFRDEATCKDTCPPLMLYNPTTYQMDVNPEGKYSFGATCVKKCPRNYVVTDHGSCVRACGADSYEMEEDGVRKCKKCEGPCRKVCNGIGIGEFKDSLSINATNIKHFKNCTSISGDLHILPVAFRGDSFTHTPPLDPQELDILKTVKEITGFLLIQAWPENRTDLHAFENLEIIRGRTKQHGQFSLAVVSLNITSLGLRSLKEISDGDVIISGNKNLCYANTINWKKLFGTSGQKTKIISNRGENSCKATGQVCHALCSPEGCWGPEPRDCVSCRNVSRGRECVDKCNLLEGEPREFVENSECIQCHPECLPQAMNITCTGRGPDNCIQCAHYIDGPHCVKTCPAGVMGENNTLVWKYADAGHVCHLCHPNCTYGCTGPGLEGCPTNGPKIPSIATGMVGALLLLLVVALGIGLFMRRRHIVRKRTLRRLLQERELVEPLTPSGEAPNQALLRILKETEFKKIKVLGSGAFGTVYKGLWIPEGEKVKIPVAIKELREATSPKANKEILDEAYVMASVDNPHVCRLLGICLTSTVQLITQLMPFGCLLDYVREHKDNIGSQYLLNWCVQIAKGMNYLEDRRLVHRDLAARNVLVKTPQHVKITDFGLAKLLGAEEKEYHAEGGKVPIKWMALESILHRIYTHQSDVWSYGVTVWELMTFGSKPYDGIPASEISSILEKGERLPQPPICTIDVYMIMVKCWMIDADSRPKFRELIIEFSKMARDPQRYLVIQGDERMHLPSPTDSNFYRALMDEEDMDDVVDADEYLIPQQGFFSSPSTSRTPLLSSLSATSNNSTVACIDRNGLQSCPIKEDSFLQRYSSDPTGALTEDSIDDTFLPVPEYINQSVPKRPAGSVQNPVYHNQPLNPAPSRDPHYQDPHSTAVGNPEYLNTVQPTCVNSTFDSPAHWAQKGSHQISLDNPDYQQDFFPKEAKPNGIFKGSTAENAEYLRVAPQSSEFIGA

| Compound | Activity [1] | MIC (Micrococcus luteus) [µg/mL] | MIC (Bacillus cereus) [µg/mL] | MIC (Corynebacterium bovis) [µg/mL] | IC50 (A-431) [ng/mL] | MIC (Bacillus anthracis) [µg/mL] | MIC (Bacillus subtilis) [µg/mL] | MIC (Staphylococcus aureus) [µg/mL] | Activity (Zone of skin) | MIC [2] [µg/mL] | MIC (Klebsiella pneumoniae) [µg/mL] |
| --- | --- | --- | --- | --- | --- | --- | --- | --- | --- | --- | --- |
| C=C[C@]1(C)CC[C@@](C)(C(C)C)c2cc3c4c(c[nH]c4c21)C[C@@H](CO)NC(=O)[C@H](C(C)C)N3C | inactive | – | – | – | – | – | – | – | – | – | – |
| C=CC(C)(C)c1ccc2c3c(c[nH]c13)C[C@@H](CO)NC(=O)[C@H](C(C)C)N2C [PENDOLMYCIN] | inactive | 25 (≈ 67.7 µM) | 50 (≈ 135 µM) | 50 (≈ 135 µM) | 1 (≈ 0.00271 µM) | 50 (≈ 135 µM) | 50 (≈ 135 µM) | 25 (≈ 67.7 µM) | Toxic | 50 (≈ 135 µM) | 100 (≈ 271 µM) |
